Source: ChEMBL document CHEMBL4507274 (2021)

Experiments:
Conditions in all cases: Compound concentration 10.0 uM
[1] = biological target: Cyclin-dependent kinase 2/cyclin A (Homo sapiens) (UniProt P24941+P20248+P78396); experiment: CDK2/ cyclin A (h) Upstate kinase activity assay; assay type: protein-complex assay
[2] = biological target: Protein kinase C beta type (Homo sapiens) (UniProt P05771); experiment: PKCBI (h) Upstate kinase activity assay
[3] = biological target: Serine/threonine-protein kinase MARK2 (Homo sapiens) (UniProt Q7KZI7); experiment: PAR-1Balpha (h) Upstate kinase activity assay
Chain of Serine/threonine-protein kinase MARK2 (Homo sapiens) (Q7KZI7 whole entry): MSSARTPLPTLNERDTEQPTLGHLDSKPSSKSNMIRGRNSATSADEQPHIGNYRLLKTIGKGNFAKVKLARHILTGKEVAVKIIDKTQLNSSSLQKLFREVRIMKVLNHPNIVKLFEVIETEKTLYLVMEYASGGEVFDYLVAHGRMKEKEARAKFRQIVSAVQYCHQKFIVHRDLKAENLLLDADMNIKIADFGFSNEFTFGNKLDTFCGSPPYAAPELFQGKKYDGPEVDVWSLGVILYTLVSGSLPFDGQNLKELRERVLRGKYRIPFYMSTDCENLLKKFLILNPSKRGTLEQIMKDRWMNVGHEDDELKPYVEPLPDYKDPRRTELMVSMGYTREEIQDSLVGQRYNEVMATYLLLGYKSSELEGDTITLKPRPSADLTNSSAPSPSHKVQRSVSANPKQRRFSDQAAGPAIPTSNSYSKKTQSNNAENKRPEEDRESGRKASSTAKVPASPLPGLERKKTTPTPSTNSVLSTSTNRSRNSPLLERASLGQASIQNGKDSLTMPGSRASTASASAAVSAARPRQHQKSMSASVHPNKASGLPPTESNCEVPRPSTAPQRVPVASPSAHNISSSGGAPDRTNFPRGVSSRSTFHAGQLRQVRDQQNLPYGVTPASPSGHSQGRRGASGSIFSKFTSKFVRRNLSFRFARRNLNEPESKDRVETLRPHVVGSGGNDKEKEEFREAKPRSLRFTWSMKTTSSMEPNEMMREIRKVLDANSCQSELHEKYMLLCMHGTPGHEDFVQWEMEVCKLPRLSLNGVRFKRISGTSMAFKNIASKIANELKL

[4] = biological target: T1, Ephrin type-B receptor 4 (Homo sapiens) (UniProt P54760); experiment: EphB4 (h) Upstate kinase activity assay
T1 sequence (whole entry): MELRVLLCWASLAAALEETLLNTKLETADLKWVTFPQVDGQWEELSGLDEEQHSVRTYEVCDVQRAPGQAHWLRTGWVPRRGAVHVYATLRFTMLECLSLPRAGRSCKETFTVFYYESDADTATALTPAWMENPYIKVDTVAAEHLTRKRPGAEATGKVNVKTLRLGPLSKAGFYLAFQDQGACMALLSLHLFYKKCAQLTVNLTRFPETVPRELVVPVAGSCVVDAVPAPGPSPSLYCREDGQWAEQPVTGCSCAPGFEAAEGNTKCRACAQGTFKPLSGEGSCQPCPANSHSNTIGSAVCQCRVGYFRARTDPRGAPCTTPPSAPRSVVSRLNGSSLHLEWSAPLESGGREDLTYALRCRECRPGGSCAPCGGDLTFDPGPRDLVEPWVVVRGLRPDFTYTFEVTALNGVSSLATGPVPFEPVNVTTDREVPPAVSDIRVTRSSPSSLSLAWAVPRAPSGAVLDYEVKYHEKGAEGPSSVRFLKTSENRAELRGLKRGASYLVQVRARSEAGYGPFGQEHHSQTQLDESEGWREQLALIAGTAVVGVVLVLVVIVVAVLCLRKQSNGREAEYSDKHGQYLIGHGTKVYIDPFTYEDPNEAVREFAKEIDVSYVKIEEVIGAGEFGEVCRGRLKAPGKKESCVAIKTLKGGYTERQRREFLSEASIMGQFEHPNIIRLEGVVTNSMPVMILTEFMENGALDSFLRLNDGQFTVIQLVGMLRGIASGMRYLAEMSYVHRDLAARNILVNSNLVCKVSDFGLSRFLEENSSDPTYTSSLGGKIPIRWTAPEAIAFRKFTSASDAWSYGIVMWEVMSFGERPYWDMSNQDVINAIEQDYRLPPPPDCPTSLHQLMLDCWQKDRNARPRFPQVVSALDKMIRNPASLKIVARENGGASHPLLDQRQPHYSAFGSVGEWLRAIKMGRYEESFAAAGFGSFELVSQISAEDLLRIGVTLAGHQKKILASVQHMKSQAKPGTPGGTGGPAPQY

[5] = biological target: Tyrosine-protein kinase BTK (Homo sapiens) (UniProt Q06187); experiment: BTK (h) Upstate kinase activity assay
Chain of Tyrosine-protein kinase BTK (Homo sapiens) (Q06187 whole entry): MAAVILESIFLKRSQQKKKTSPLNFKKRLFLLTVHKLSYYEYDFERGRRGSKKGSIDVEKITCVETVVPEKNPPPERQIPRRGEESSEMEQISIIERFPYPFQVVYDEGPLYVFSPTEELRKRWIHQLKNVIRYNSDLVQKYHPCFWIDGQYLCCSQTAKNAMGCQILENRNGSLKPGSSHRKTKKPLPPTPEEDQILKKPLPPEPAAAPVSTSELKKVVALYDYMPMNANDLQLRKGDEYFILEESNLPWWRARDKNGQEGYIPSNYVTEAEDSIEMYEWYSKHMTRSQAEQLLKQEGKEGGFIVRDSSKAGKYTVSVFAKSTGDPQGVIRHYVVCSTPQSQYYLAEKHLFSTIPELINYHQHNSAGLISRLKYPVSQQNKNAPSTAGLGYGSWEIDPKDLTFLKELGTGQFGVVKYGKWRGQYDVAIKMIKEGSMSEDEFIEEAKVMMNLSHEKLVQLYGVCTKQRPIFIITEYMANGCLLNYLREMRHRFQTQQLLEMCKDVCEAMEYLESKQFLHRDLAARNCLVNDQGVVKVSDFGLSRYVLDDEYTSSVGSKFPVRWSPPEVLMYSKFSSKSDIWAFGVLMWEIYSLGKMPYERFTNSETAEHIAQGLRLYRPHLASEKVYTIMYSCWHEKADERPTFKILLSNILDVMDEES

[6] = biological target: Rho-associated protein kinase 2 (Homo sapiens, UniProt O75116)
Chain of Rho-associated protein kinase 2 (O75116 whole entry, looked up): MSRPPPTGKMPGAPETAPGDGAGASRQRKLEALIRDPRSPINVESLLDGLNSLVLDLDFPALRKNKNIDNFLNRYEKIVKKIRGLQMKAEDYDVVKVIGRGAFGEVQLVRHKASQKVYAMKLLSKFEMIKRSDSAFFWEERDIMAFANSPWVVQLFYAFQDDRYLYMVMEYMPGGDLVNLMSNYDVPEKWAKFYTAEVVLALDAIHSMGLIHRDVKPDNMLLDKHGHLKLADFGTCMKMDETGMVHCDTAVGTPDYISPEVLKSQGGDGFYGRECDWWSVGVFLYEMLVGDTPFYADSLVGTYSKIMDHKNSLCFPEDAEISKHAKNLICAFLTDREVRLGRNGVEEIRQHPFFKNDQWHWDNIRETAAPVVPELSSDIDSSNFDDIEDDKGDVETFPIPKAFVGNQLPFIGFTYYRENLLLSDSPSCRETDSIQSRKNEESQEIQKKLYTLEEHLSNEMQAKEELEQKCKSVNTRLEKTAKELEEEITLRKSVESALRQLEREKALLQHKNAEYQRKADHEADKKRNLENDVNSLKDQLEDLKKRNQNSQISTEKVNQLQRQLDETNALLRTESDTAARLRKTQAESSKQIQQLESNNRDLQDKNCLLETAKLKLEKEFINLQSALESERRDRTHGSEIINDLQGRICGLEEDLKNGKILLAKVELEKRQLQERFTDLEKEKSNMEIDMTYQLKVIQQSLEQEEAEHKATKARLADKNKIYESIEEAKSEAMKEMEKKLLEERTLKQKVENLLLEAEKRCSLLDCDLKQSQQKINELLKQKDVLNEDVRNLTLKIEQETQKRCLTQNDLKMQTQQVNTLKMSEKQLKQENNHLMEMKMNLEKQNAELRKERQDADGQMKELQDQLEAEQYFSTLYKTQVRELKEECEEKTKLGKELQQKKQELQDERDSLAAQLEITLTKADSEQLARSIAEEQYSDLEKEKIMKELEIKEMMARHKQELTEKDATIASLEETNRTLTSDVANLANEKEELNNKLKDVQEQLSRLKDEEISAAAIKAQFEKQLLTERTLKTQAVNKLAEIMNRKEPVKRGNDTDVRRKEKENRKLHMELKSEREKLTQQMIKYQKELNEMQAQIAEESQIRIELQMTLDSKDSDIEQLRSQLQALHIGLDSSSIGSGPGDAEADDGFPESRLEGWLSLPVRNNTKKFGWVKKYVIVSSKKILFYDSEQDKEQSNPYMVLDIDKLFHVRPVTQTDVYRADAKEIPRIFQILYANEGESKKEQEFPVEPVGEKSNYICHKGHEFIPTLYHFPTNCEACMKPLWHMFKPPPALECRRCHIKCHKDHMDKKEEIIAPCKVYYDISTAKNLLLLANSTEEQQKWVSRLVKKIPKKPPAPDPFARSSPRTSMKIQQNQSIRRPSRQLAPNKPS

Measured: inhibition

Chain of Protein kinase C beta type (Homo sapiens) (P05771 2-671 limits assumed): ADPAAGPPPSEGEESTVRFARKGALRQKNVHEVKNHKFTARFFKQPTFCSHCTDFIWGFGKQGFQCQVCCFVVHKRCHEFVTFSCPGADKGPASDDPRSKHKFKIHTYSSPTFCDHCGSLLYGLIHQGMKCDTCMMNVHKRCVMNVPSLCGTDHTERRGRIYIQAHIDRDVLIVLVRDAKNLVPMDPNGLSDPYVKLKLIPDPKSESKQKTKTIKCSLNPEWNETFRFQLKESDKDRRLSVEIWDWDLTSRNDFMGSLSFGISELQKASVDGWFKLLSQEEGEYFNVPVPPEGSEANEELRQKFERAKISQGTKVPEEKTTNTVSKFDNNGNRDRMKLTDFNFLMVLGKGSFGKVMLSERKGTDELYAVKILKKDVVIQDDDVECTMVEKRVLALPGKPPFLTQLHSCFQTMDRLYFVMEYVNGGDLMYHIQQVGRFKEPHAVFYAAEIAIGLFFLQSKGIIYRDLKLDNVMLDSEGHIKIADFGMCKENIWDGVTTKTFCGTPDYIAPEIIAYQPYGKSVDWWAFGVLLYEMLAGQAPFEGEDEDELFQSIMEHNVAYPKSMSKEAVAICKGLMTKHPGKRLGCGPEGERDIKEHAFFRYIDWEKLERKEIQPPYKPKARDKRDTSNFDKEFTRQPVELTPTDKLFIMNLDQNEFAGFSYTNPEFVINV

Cc1c[nH]c2nccc(Oc3c(F)cc(Nc4cc(Cl)nc(N)n4)cc3F)c12 [BAY-549]
inactive: [1] 20% | [2] 8% | [3] 33% | [4] -9% | [5] 1% | [6] 100%
